Columns and labels:
HIV clinical isolate = assay: inhibition of HIV replication in PHA-stimulated lymphocytes (HIV P-24 antigen Elisa); assay type: cell-based; conditions: 20 μM
Text: (§1) Results are tabulated below.

[1] = test system: stage 59-60 Xenopus tadpole; assay: Xenopus tadpole assay; conditions: 10 μg/ml
B16 melanoma = assay: suppression of growth of B16 melanoma in C57B mice; assay type: in vivo, mouse; conditions: 10 mg/kg every 3 days alone, FIG. 12
Method: The growth of B16 melanoma in C57B mice is dependent upon neovascularization.
Using the growth of B16 melanoma cells in C57B mice, a recognized model for the evaluation of inhibitors of angiogenesis on the growth of cancers, the effects of subcutaneous, intraperitoneal and oral administration of squalamine were evaluated.
Based on the idea that tumor growth involves both the clonal expansion of a malignant cell along with the development of a supporting vascular supply, a combination of compound 1436 with squalamine was tested to determine whether it would achieve a synergistic effect on solid tumor growth. This concept was evaluated in the B16 melanoma model.
Animals were implanted with B16 melanoma followed by treatment with compound 1436 or 1256 administered in a combined schedule or separately. […] Thus, a combination of these two compounds achieves a therapeutic benefit in tumors dependent on neovascularization that may prevent metastatic spread.

[2] = test system: L1210 lymphoblastic leukemia cells; assay: mouse model of leukemia; assay type: in vivo; conditions: highest dose (10 mg/kg every 3 days ip), FIG. 11
Text: C57B mice were inoculated with L1210 lymphoblastic leukemia cells at an inoculum that causes leukemia in 100% of animals.

[3] = viability of lymphocytes in HIV test; assay type: cell-based; conditions: human
Text: as §1

human melanoma = assay: effect on growth of human melanoma over time / mode of cell death; assay type: cell-based
[4] = test system: heart of a juvenile Xenopus laevis frog; assay: persistence of beating of isolated frog heart; conditions: 10 μg/ml
Method: To determine if compound 1436 has such utility, the following experiment was performed. The heart of a juvenile Xenopus laevis frog was dissected from the living animal. The heart was placed into a Petri dish containing Krebs-Ringer buffer with adrenaline 50 μg/ml, and examined with the naked eye. At room temperature, the heart continued beating in a coordinated fashion (atrial beat followed by ventricular beat) for about one hour. In the presence of 10 μg/ml of compound 1436, spontaneous beating persisted up to 24 hours.

[5] = test system: stage 59-60 Xenopus tadpole; conditions: 10 μg/mL, Table II
rabbit NHE3 = rabbit NHE3 (Oryctolagus cuniculus, UniProt P26432); conditions: 10 μg/ml, acid preloaded 40 mM NH4Cl, FIG. 10
Sequence of rabbit NHE3 (P26432 30-832): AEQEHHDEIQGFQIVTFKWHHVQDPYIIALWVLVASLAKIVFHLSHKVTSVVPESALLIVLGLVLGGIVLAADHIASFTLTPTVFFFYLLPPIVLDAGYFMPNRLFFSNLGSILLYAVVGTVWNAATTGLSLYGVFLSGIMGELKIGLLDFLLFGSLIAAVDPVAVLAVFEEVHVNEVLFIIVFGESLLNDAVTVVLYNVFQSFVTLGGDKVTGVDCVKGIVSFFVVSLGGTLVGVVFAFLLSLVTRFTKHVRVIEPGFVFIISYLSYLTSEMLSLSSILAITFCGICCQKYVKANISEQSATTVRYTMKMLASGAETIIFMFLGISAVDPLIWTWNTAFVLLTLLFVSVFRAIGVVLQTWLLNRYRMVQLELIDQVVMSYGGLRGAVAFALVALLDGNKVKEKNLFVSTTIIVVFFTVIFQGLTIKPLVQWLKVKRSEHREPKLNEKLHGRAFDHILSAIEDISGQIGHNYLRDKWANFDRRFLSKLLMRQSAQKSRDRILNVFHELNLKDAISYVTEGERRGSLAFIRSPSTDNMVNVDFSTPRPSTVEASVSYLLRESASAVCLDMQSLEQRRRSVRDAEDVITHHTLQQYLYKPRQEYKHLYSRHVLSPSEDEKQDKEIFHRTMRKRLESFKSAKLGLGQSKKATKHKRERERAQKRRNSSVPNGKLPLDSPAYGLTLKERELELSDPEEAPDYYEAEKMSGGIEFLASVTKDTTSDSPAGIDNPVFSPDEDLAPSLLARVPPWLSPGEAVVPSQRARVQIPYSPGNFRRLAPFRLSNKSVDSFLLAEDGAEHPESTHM
Method: Internal pH was measured either following acid loading or in the absence of an acid-loading challenge, with the results shown in FIGS. 1A and 1B.
Specifically, PS120 fibroblasts transfected with rabbit NHE3 were grown in supplemented Dulbecco's-modified Eagle's medium as described by Levine et al., J. Biol. Chem. 268, 1993, 25527-25535. […] For cells not acid-preloaded, the actual internal pH value was monitored as a function of time following addition of squalamine, with the results depicted in FIG. 1B.
PS120 fibroblasts transfected with rabbit NHE3 were grown and acid preloaded by exposure to 40 mM NH4 Cl as described above in conjunction with FIGS. 1A and 1B. Internal cellular pH changes expressed as the rate of pH recovery as a function of restored extracellular sodium ion concentration following exposure to 10 μg/ml of the compound were assayed with the fluorescent dye BCECF-AM as described above.

human lymphocytes = assay: inhibition of mitogen (PHA)-stimulated growth of human T-cells; conditions: Homo sapiens, Lymphocyte, read-out: inhibition of blast transformation
Method: Specific assays were used to identify steroids with a particular biological activity, such as an assay for inhibition of mitogen-stimulated growth of human T-cells.
Human heparinized blood, freshly collected, was introduced into tissue culture flasks containing 10 μg/ml phytohaemagglutinin (PHA) in RPMI medium with 10% FCS. Various purified steroids were introduced subsequently at concentrations of 1, 5, and 10 μg/ml. Cultures were incubated for 72 hours, after which time colcemid was added to 1 μg/ml. Cultures were maintained for an additional 2 hours, and cells collected. Miotic figures were estimated using standard cytochemical techniques, following Giemsa staining.

[6] = effect on fasting blood glucose in mice; assay type: in vivo, mouse (male CD-1); conditions: i.v.
Method: To study the effect of steroid administrator or the NHE responsible for secretion of insulin, several of the aminosterols from shark liver were administered to fasting mice. Male CD-1 mice were assigned to one of four treatment groups. Whole blood glucose was tested using glucometer (Lifescan Glucometer II and One Touch test strips). Statistical analysis was via one-way analysis of variance (ANOVA) followed by subsequent Bonferonni's t-test.

[7] = effect on arterial resistance in the rat; assay type: in vivo; conditions: 5 mg/kg i.v.
Method: A 200-g rat was catheterized in the right carotid artery, and the compound was introduced over a ten-second period to a total dosage of 5 mg/kg. Within 30 seconds, the mean arterial pressure had fallen from about 100 mm Hg to about 70 mm Hg, with a marked reduction in pulse pressure from about 40 mm to about 10 mm. […] If cardiac output was basically unaffected, reduction in blood pressure would have resulted principally from a reduction in system resistance.
At that time, 40 μg of noradrenaline was introduced.

[8] = test system: human coronary artery smooth muscle; assay: proliferation of human coronary artery smooth muscle in vitro; assay type: cell-based; conditions: FIG. 15
Text: Aminosterols of the invention may also have utility in inhibiting the growth factor mediated proliferation of smooth muscle within the artery. Following coronary angioplasty, reocclusion commonly occurs, secondary to reparative proliferation of the vascular smooth muscle within the wall of the surgically manipulated blood vessel. This process generally takes place over the course of 7-10 days. To evaluate whether an agent could prevent the growth factor mediated proliferation of smooth muscle within the artery, compound 1436 was evaluated in vitro for its effect on the proliferation of human coronary artery smooth muscle. Results for compound 1436 are shown in FIG. 13, and those for squalamine are shown in FIG. 14, with FIG. 15 being a composite logarithmic plot.

[9] = test system: chick embryo vitelline capillaries; assay: chick embryo vitelline capillary regression assay; assay type: in vivo
Method: Using the chick embryo vitelline capillaries assay, compounds were tested for their ability to induce capillary regression. Each compound was applied in 0.1 ml of 15% Ficol 400 and PBS onto the embryo, and vascular regression was assessed after 60 minutes.
The 3-day chick embryo consists of an embryonic disc from which numerous vessels emerge and return, forming a "FIG. 8"-shaped structure--the embryo in the center with vascular loops extending outward over both poles. […] Following a lag period of around 15 minutes, the constriction of continuity between capillary and secondary vessels, generally on the "venous" side, was observed. Continued pulsatile blood flow progressed, resulting in a "swelling" of the blind tube, followed by a pinching off of the remaining connection and formation of an enclosed vascular sac resembling a "blood island." This process progressed until only the largest vessels remained intact.

[10] = test system: Human microvascular endothelial cells; assay: growth inhibition in vitro; assay type: cell-based; conditions: 10 μg/ml
Text: (§2) As set forth in Table 7 below, all malignant tumors evaluated in tissue culture, endothelial cells and vascular smooth muscle cells were sensitive to inhibition. Thus, compound 1436 has application in the control of growth factor dependent proliferation of many types of tissue.

Lewis lung carcinoma = assay: growth inhibition in vitro; assay type: cell-based; conditions: 10 μg/ml
Text: as §2

[11] = test system: Human coronary artery smooth muscle cells; assay: growth inhibition in vitro; assay type: cell-based; conditions: 10 μg/ml
Text: as §2

[12] = test system: bovine pulmonary endothelial cells; assay: growth inhibition in vitro; assay type: cell-based; conditions: 10 μg/ml
Text: as §2

Human melanoma WM 1617 = assay: growth inhibition in vitro; assay type: cell-based; conditions: WM 1617, 10 μg/ml
Text: as §2

Murine B16 melanoma = assay: growth inhibition in vitro; assay type: cell-based; conditions: Murine B16 melanoma, 10 μg/ml
Text: as §2

[13] = test system: Human colon carcinoma HT29; assay: growth inhibition in vitro; assay type: cell-based; conditions: HT29, 10 μg/ml
Text: as §2

Murine L1210 leukemia = assay: growth inhibition in vitro; assay type: cell-based; conditions: 10 μg/ml
Text: as §2

[14] = test system: Human colon carcinoma SW948; assay: growth inhibition in vitro; assay type: cell-based; conditions: SW948, 10 μg/ml
Text: as §2

[15] = test system: human umbilical venous endothelial cells; assay: growth inhibition in vitro; assay type: cell-based; conditions: 10 μg/ml
Text: as §2

[16] = effect on growth and weight gain of growing mice; assay type: in vivo, mouse (C57B)
Method: Animals were dosed QTD (i.p.) starting on Day 1. […] Animals receiving 5 mg/kg QTD experienced about a 50% reduction in growth, compared to untreated controls, while animals receiving 1 mg/kg QTD were affected by about 10%. […] They appeared very much like hypophysectamized animals might appear.

[17] = test system: Human ovarian carcinoma SKOV3; assay: growth inhibition in vitro; assay type: cell-based; conditions: SKOV3, 10 μg/ml
Method: as §2
Using the assay described above, the anticancer effects of compound 1437 against several cancer lines was assessed.

## CC(C)[C@@H](CC[C@@H](C)[C@H]1CC[C@H]2[C@@H]3[C@H](O)C[C@H]4C[C@@H](NCCCNCCCCNCCCN)CC[C@]4(C)[C@H]3CC[C@]12C)OS(=O)(=O)O [Compound 1436]
HIV clinical isolate
  P-24 Elisa: 9
[1]
  time to death of tadpole: about 2 hours
[1]; about 1 hour
  tadpole response: Gradual reduction in overall activity. Heart beat remained strong, suggesting nervous system depression. Melanocytes over head and tail began to swell, first exhibiting visibly distinct nuclei, followed by rupture into fragments
B16 melanoma
  impact on tumor volume: no significant impact on tumor volume
[2]
  survival of mice bearing L1210 leukemia: significant prolongation of life
[3]; 0.5 μM
  viability at 168 h, 0.5 µM: 91%
[3]; 10 μM
  viability at 168 h, 10 µM: 95%
[3]; 10 μg/ml, read-out: lymphocyte viability
  viability at 168 h: 95%
[3]; 20 μM
  viability at 168 h, 20 µM: 90.1%
Human melanoma
  mode of cell death: same highly selective mechanism of killing
[4]
  atrial pacemaker and conduction: remained vigorous
[5]
  Tadpole M (merarocytes): +
Rabbit NHE3
  inhibition of rabbit NHE3 (rate of pH recovery): inhibit rabbit NHE3
Human lymphocytes
  inhibition at 10 µg/mL: > 75%
[6]
  hyperglycemia: caused hyperglycemia in mice
[7]
  duration of effect followed without significant change: 30 min
  heart rate: no significant increase in heart rate
[8]
  growth of human coronary artery smooth muscle: suppress in vitro the growth
[9]
  vitelline capillary regression, potency in words: about the same potency as squalamine
[10]
  non-transformed cells inhibited in vitro: INHIBITED
Lewis lung carcinoma
  cancer cells inhibited in vitro: INHIBITED
[11]
  non-transformed cells inhibited in vitro: INHIBITED
[12]
  non-transformed cells inhibited in vitro: INHIBITED
Human melanoma WM 1617
  cancer cells inhibited in vitro: INHIBITED
Murine B16 melanoma
  cancer cells inhibited in vitro: INHIBITED
[13]
  cancer cells inhibited in vitro: INHIBITED
Murine L1210 leukemia
  cancer cells inhibited in vitro: INHIBITED
[14]
  cancer cells inhibited in vitro: INHIBITED
[15]
  non-transformed cells inhibited in vitro: INHIBITED
[16]; 1 mg/kg QTD i.p.
  reduction in growth: about 10%
[16]; 10 mg/kg QTD i.p., after 6 doses, about 1 month
  suppression of growth of mice: growth was almost completely inhibited
[16]; mouse, in vivo
  apparent health of treated animals: all were active, normally proportioned, not-cachectic, and in excellent apparent clinical health
[17]
  cancer cells inhibited in vitro: INHIBITED
